In ChEMBL document CHEMBL1201862, “PubChem BioAssay data set” (2004):
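Method: 48-hour compound exposure of cells in 96-well plates, five concentrations, linear interpolation of endpoints. The concentration for 50% growth inhibition is given as GI50.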 Calls of active or inactive are those of the source. Rule as the data show it: active = GI50 up to about 1.1 µM and inactive = higher.

Experiments:
Assay in all cases: NCI tumour cell line growth inhibition, 48 h
786-0 = system: 786-0
A549 = system: A549
BT-549 = system: BT-549
CAKI-1 = system: CAKI-1
CCRF-CEM = system: CCRF-CEM
COLO 205 = system: COLO 205
HCT-116 = system: HCT-116
HT-29 = system: HT-29
M14 = system: M14
MDA-MB-231 = system: MDA-MB-231
MOLT-4 = system: MOLT-4
Malme-3M = system: Malme-3M
NCI-H226 = system: NCI-H226
OVCAR-3 = system: OVCAR-3
PC-3 = system: PC-3
RPMI-8226 = system: RPMI-8226
SF-295 = system: SF-295
SNB-19 = system: SNB-19
SW-620 = system: SW-620
HCC 2998 = system: HCC 2998

Measured: GI50

O=C([O-])C(O)C(O)C(=O)O.[K+] (stereo not drawn) [POTASSIUM HYDROGENTARTRATE]
inactive: 786-0 > 100 µM | A549 > 100 µM | BT-549 > 100 µM | CAKI-1 > 100 µM | CCRF-CEM > 100 µM | COLO 205 > 100 µM | HCT-116 > 100 µM | HT-29 > 100 µM | M14 > 100 µM | MDA-MB-231 > 100 µM | MOLT-4 > 100 µM | Malme-3M > 100 µM | NCI-H226 > 100 µM | OVCAR-3 > 100 µM | PC-3 > 100 µM | RPMI-8226 > 100 µM | SF-295 > 100 µM | SNB-19 > 100 µM | SW-620 > 100 µM

N=C1C(O)C2(I)c3ccccc3N3C(=N)C(O)C4c5ccccc5N1C4C32 (stereo not drawn)
inactive: 786-0 30.8 µM | A549 51.8 µM | BT-549 > 100 µM | CAKI-1 93.5 µM | CCRF-CEM 2.3 µM | COLO 205 26.2 µM | HCT-116 36.7 µM | HT-29 95.1 µM | M14 59 µM | MDA-MB-231 26.4 µM | MOLT-4 27.5 µM | Malme-3M 21.1 µM | OVCAR-3 32.1 µM | PC-3 41.7 µM | RPMI-8226 40.9 µM | SF-295 47.8 µM | SNB-19 63.7 µM | SW-620 52.8 µM

CC1(C)OCC(C2OC(On3nnc4ccc(Cl)cc43)C3OC(C)(C)OC23)O1 (stereo not drawn)
inactive: 786-0 > 100 µM | A549 > 100 µM | BT-549 > 100 µM | CAKI-1 > 100 µM | CCRF-CEM > 100 µM | COLO 205 > 100 µM | HCT-116 > 100 µM | HT-29 > 100 µM | M14 > 100 µM | MDA-MB-231 > 100 µM | MOLT-4 > 100 µM | Malme-3M > 100 µM | NCI-H226 66.1 µM | OVCAR-3 > 100 µM | PC-3 > 100 µM | RPMI-8226 > 100 µM | SF-295 > 100 µM | SNB-19 > 100 µM | SW-620 > 100 µM

Cc1cc2c(c(=O)o1)C1=S(SC(c3ccccc3)=C1)S2 (stereo not drawn)
inactive: 786-0 15 µM | A549 33.7 µM | BT-549 > 100 µM | CCRF-CEM > 100 µM | COLO 205 > 100 µM | HCT-116 22.8 µM | HT-29 38.9 µM | M14 45.5 µM | MDA-MB-231 57.4 µM | MOLT-4 > 100 µM | Malme-3M 30.1 µM | OVCAR-3 24.9 µM | PC-3 24.4 µM | RPMI-8226 55.6 µM | SF-295 27.3 µM | SNB-19 28.2 µM | SW-620 > 100 µM

CC1(C)C2CCC1(C)C(OC(=O)/C=C/C(=O)OC1CC3CCC1(C)C3(C)C)C2 (stereo not drawn)
inactive: 786-0 72.9 µM | A549 > 100 µM | BT-549 44.7 µM | CAKI-1 > 100 µM | CCRF-CEM 11.4 µM | COLO 205 75.2 µM | HCC 2998 64.4 µM | HCT-116 56.9 µM | HT-29 40 µM | M14 76.9 µM | MDA-MB-231 > 100 µM | MOLT-4 16.9 µM | OVCAR-3 48.8 µM | PC-3 > 100 µM | SF-295 > 100 µM | SNB-19 51.4 µM | SW-620 38.1 µM

COC(=O)Cc1c([C@H]2[C@H](CC(=O)OC)c3ccccc3N2C(C)=O)[nH]c2ccccc12
inactive: 786-0 > 100 µM | A549 97.7 µM | BT-549 67.6 µM | CAKI-1 > 100 µM | CCRF-CEM 67.5 µM | COLO 205 67.1 µM | HCT-116 > 100 µM | HT-29 > 100 µM | M14 > 100 µM | MDA-MB-231 > 100 µM | MOLT-4 54.8 µM | Malme-3M > 100 µM | NCI-H226 > 100 µM | OVCAR-3 > 100 µM | PC-3 80 µM | RPMI-8226 33.6 µM | SF-295 72.8 µM | SNB-19 > 100 µM | SW-620 > 100 µM

COC(NC(=O)Nc1ccc(C)cc1)(C(F)(F)F)C(F)(F)F
inactive: 786-0 54.2 µM | A549 34.8 µM | BT-549 22.9 µM | CCRF-CEM 2.67 µM | COLO 205 18.7 µM | HCT-116 29.3 µM | HT-29 31 µM | M14 29.5 µM | MDA-MB-231 32.2 µM | MOLT-4 9.08 µM | Malme-3M 36.3 µM | NCI-H226 55.8 µM | OVCAR-3 42.8 µM | PC-3 13.9 µM | RPMI-8226 24.6 µM | SF-295 26.5 µM | SNB-19 23.7 µM | SW-620 20.4 µM

CCCCOc1ccc(S(=O)(=O)N/C(N)=N/c2ccc(Cl)cc2)cc1
inactive: 786-0 14.7 µM | A549 19.5 µM | BT-549 17.8 µM | COLO 205 25.2 µM | HCT-116 15.2 µM | HT-29 18.3 µM | M14 18.7 µM | MDA-MB-231 15.6 µM | MOLT-4 11.2 µM | Malme-3M 14.6 µM | NCI-H226 19.9 µM | OVCAR-3 14.9 µM | PC-3 17.3 µM | RPMI-8226 17.2 µM | SF-295 18.3 µM | SNB-19 16.9 µM | SW-620 15.5 µM

NC1=CN2c3ccccc3N(CC(=O)N3CCOCC3)C2C=C1 (stereo not drawn)
inactive: 786-0 > 100 µM | A549 > 100 µM | BT-549 > 100 µM | CAKI-1 > 100 µM | CCRF-CEM > 100 µM | COLO 205 > 100 µM | HCT-116 > 100 µM | HT-29 > 100 µM | M14 > 100 µM | MDA-MB-231 > 100 µM | MOLT-4 > 100 µM | Malme-3M > 100 µM | NCI-H226 > 100 µM | PC-3 > 100 µM | SF-295 > 100 µM | SNB-19 > 100 µM | SW-620 > 100 µM

Cc1cc(C)c(/N=N/c2c(O)c(S(=O)(=O)O)cc3cc(S(=O)(=O)O)ccc23)cc1C
inactive: 786-0 48.9 µM | A549 > 100 µM | BT-549 > 100 µM | CAKI-1 > 100 µM | CCRF-CEM > 100 µM | COLO 205 > 100 µM | HCT-116 > 100 µM | HT-29 > 100 µM | M14 > 100 µM | MDA-MB-231 > 100 µM | MOLT-4 > 100 µM | Malme-3M > 100 µM | NCI-H226 > 100 µM | OVCAR-3 > 100 µM | PC-3 > 100 µM | RPMI-8226 > 100 µM | SF-295 > 100 µM | SNB-19 > 100 µM | SW-620 > 100 µM

N=C(CSS(=O)(=O)O)NC1CC2CCC1C2 (stereo not drawn)
inactive: 786-0 > 100 µM | A549 > 100 µM | BT-549 > 100 µM | CAKI-1 > 100 µM | CCRF-CEM > 100 µM | COLO 205 > 100 µM | HCT-116 > 100 µM | M14 > 100 µM | MDA-MB-231 > 100 µM | MOLT-4 78.2 µM | Malme-3M > 100 µM | NCI-H226 > 100 µM | OVCAR-3 > 100 µM | PC-3 > 100 µM | RPMI-8226 > 100 µM | SF-295 76.7 µM | SNB-19 > 100 µM | SW-620 > 100 µM
